In patent US20260337156A1, “SOLUBILIZING COMPOUNDS” (Vivesto AB, priority 2022, published 2026):
“Also recorded” adds a separate entry of the source.

Assay: particle size and polydispersity index of drug micelles over time (ZetaSizer)
Type: physicochemical
Details: for change of particle size and polydispersity index over time: 0-24 h
Experimental: Micellar size was measured using a ZetaSizer from Malvern Panalytical.
(§1) A stock solution of docetaxel in methanol was mixed with a stock solution of compound 1 in a round bottom flask. The mixture was evaporated to dryness in a rotary evaporator. Final drying was performed in a desiccator to remove residual solvent. Hydration of the dried film was performed by adding water for injection (1.0 mL) to a concentration of 1 mg/mL of docetaxel. The resulting solution was filtered through a 0.22 μm sterile filter and further diluted with 0.9% sodium chloride solution to 0.5 mg/mL of docetaxel. […]
(§2) A stock solution of cyclosporin in methanol was mixed with a stock solution of compound 1 in a round bottom flask. The mixture was evaporated to dryness in a rotary evaporator. Final drying was performed in a desiccator to remove residual solvent. Hydration of the dried film was performed by adding water for injection (1.0 mL) to a concentration of 1 mg/mL of cyclosporin. The resulting solution was filtered through a 0.22 μm sterile filter and further diluted with 0.9% sodium chloride solution to 0.5 mg/mL of cyclosporin. The final weight ratio of cyclosporin to micelle forming agent was 1:3.
(§3) A stock solution of docetaxel in methanol was mixed with a stock solution of compound 3 in a round bottom flask. The mixture was evaporated to dryness in a rotary evaporator. Final drying was performed in a desiccator to remove residual solvent. Hydration of the dried film was performed by adding water for injection (1.0 mL) to a concentration of 1 mg/mL of docetaxel. The resulting solution was filtered through a 0.22 μm sterile filter and further diluted with 0.9% sodium chloride solution to 0.5 mg/mL of Docetaxel. The final weight ratio of docetaxel to micelle forming agent was 1:3.
as §2, with “compound 3” for “compound 1”
as §1, with “compound 4” for “compound 1”
as §3, with “compound 5” for “compound 3”, “of docetaxel.” for “of Docetaxel.”
A stock solution of cabazitaxel in methanol was mixed with a stock solution of compound 5 in a round bottom flask. The mixture was evaporated to dryness in a rotary evaporator. Final drying was performed in a desiccator to remove residual solvent. Hydration of the dried film was performed by adding water for injection (1.0 mL) to a concentration of 1 mg/mL of cabazitaxel. […]

[1] = cyclosporin:compound 1:3, cyclosporin 0.5 mg/mL
[2] = cyclosporin:compound 1:3, cyclosporin 0.5 mg/mL, time 0 h
[3] = cyclosporin:compound 1:3, cyclosporin 0.5 mg/mL, time 1 h
[4] = cyclosporin:compound 1:3, cyclosporin 0.5 mg/mL, time 2 h
[5] = cyclosporin:compound 1:3, cyclosporin 0.5 mg/mL, time 4 h
[6] = cyclosporin:compound 1:3, cyclosporin 0.5 mg/mL, time 6 h
[7] = cyclosporin:compound 1:3, cyclosporin 0.5 mg/mL, time 24 h
[8] = docetaxel:compound 1:5, docetaxel 0.5 mg/mL, time 0 h
[9] = docetaxel:compound 1:5, docetaxel 0.5 mg/mL, time 1 h
[10] = docetaxel:compound 1:5, docetaxel 0.5 mg/mL, time 2 h
[11] = docetaxel:compound 1:5, docetaxel 0.5 mg/mL, time 4 h
[12] = docetaxel:compound 1:5, docetaxel 0.5 mg/mL, time 6 h
[13] = docetaxel:compound 1:5, docetaxel 0.5 mg/mL, time 24 h
[14] = docetaxel:compound 1:3, docetaxel 0.5 mg/mL, time 0 h
[15] = docetaxel:compound 1:3, docetaxel 0.5 mg/mL, time 1 h
[16] = docetaxel:compound 1:3, docetaxel 0.5 mg/mL, time 2 h
[17] = docetaxel:compound 1:3, docetaxel 0.5 mg/mL, time 4 h
[18] = docetaxel:compound 1:3, docetaxel 0.5 mg/mL, time 6 h
[19] = docetaxel:compound 1:3, docetaxel 0.5 mg/mL, time 24 h

Row | Particle size [2] | Polydispersity index [2] | Particle size [3] | Polydispersity index [3] | Particle size [4] | Polydispersity index [4] | Particle size [5] | Polydispersity index [5] | Particle size [6] | Polydispersity index [6] | Particle size [7] | Polydispersity index [7] | Structure (SMILES) | change of particle size and polydispersity index over time [1] | also measured
1 | 30.71 nm | 0.10 | 44.70 nm | 0.22 | 41.29 nm | 0.10 | 44.53 nm | 0.10 | 49.61 nm | 0.19 | 51.37 nm | 0.14 | COc1cc(C)c(/C=C/C(C)=C/C=C/C(C)=C/C(=O)N(CCS(=O)(=O)[O-])C2CCCCC2)c(C)c1C.[Na+] [Compound 1] | Small increases in the particle size and variations of polydispersity index over time were noted; also recorded: The changes were within acceptable range | change of particle size and polydispersity index over time (docetaxel:compound 1:5, docetaxel 0.5 mg/mL): Small increases in the particle size and polydispersity index over time were noted; also recorded: The changes were within acceptable range; Particle size [8]: 30.77 nm; Polydispersity index [8]: 0.10; Particle size [9]: 36.60 nm; Polydispersity index [9]: 0.16; Particle size [10]: 39.44 nm; Polydispersity index [10]: 0.16; Particle size [11]: 41.38 nm; Polydispersity index [11]: 0.18; Particle size [12]: 41.19 nm; Polydispersity index [12]: 0.20; Particle size [13]: 43.98 nm; Polydispersity index [13]: 0.21
2 | 8.46 nm | 0.31 | 6.77 nm | 0.21 | 6.60 nm | 0.19 | 6.58 nm | 0.18 | 6.68 nm | 0.21 | 7.39 nm | 0.32 | COc1cc(C)c(/C=C/C(C)=C/C=C/C(C)=C/C(=O)N(C)CCS(=O)(=O)[O-])c(C)c1C.[Na+] [Compound 3] | Small variations in the particle size and polydispersity index over time were noted; also recorded: The changes were within acceptable range | change of particle size and polydispersity index over time (docetaxel:compound 1:3, docetaxel 0.5 mg/mL): Small variations in the particle size and polydispersity index over time were noted; also recorded: The changes were within acceptable range; Particle size [14]: 6.19 nm; Polydispersity index [14]: 0.11; Particle size [15]: 7.19 nm; Polydispersity index [15]: 0.11; Particle size [16]: 10.06 nm; Polydispersity index [16]: 0.26; Particle size [17]: 10.18 nm; Polydispersity index [17]: 0.27; Particle size [18]: 10.25 nm; Polydispersity index [18]: 0.27; Particle size [19]: 6.20 nm; Polydispersity index [19]: 0.14
